Test results taken from patent publication US10064909B2, “Compositions and methods for chronic use of a weight-gaining compound” (priority 2015, dated 2018).

What was measured:
Assay type in all cases: in vivo
[1] = Pilot clinical field study in cats with CKD (Example 11); conditions: for mean bodyweight change (±SEM): 2 mg/kg oral once daily
Description: This placebo controlled, masked non-GCP study was to confirm the safety and effectiveness (weight gain) of AT-002 (capromorelin) at a dose of 2 mg/kg administered once daily for 90 days in cats with CKD and a history of losing weight.
A total of 42 cats were screened at 7 veterinary clinics. Of these 42 cats, 1 was a screen failure, resulting in 41 cats being enrolled and randomized to 1 of 2 treatments, capromorelin oral solution (AT-002) or placebo (CP). Eligible study candidates included cats that presented to the veterinary clinic with a diagnosis of CKD (IRIS stages II, III or IV) and a documented decrease in bodyweight over the previous 6 months. Test articles were provided as flavored oral solutions and were administered orally once daily beginning on Day 0 for 90±3 days, AT-002 at a dose rate of 2 mg/kg and CP at the equivalent dose volume to AT-002. The Investigator, study staff and cat Owners were masked to treatment. Cats were re-evaluated at the clinic on Day 14±1, Day 30±2, Day 60±3 and Day 90±3.
The key variable for the determination of effectiveness was bodyweight. Other effectiveness variables measured included body condition score, muscle condition score, quality of life assessments (unvalidated) and owner appetite assessments (unvalidated). Safety was assessed by physical examinations, clinical pathology testing (hematology and serum chemistry), urinalysis, serum IGF-1 levels and adverse event monitoring.

IGF-1 = assay: Dose titration laboratory study (10 days): serum IGF-1; conditions: cats
Description: (§1) This study defined a capromorelin oral solution dose regime that provides increased food intake and weight gain and the accompanying desired profile of IGF-1 serum levels. Laboratory adult cats were housed individually and divided into five groups (3/sex/group; n=6/group). Cats were dosed once daily for 10 consecutive days with either placebo, 1 mg/kg AT-002, 2 mg/kg AT-002, 3 mg/kg AT-002 or 4 mg/kg AT-002. The test article was a flavored solution formulation very similar to the final formulation. Study activities are summarized at Table 5.

[2] = Laboratory cats modelling CKD safety pilot study
Description: This study sought to define a capromorelin pharmacokinetic profile in serum of cats with compromised kidney function, to determine if accumulation of capromorelin in serum occurred after 14 days of treatment, and to observe cats for any potential adverse effects of treatment not seen in normal cats. The target population for the capromorelin oral solution included cats with CKD. Therefore, this study used laboratory with significant portions of their kidneys surgically removed and subsequently compromised kidney function indicated by increased serum creatinine and BUN. These cats were developed as a model by Charles River, and are maintained at a colony at their facility in Ballina, Ireland.
Sixteen cats with compromised kidney function were enrolled in the study and randomized to three groups. Animals assigned to Group 1 (n=6) were administered AT-002 once on Day 0 by intravenous catheter at a dose rate of 0.75 mg/kg per cat. Animals assigned to Group 2 (n=6) were administered the AT-002 daily for 14 days by subcutaneous injection at a dose rate of 2 mg/kg. Subcutaneous and intravenous treatment routes were used to assure that sufficient drug exposure occurred. Animals assigned to Group 3 (n=4) served as untreated controls.
Blood samples were collected for capromorelin and/or IGF-1 analysis from animals assigned to Group 1 on Study Day 0. Blood samples were also collected from animals assigned to Groups 2 and 3 on Study Days −1 and 13 (prior to dosing) for hematology and clinical chemistry analysis. Appetite was assessed by food intake and weight gain. Bodyweight measurements were performed on Days −7, −1 (all groups) and on Day 13 (Groups 2 and 3 only). Food intake was monitored from Day −7 to Day 13 inclusive for animals assigned to Groups 2 and 3. Animals were observed daily for clinical signs.

GH = assay: 91-day cat safety study: serum GH; conditions: cats, 6 mg/kg, compared to placebo controls; attenuated through Days 30, 59, 91
Description: This controlled study included two treatment groups with 4 adult cats receiving placebo (Group 1) and 8 adult cats receiving capromorelin (Formulation #9, as described above) (Group 2) for 91 consecutive days. All cats were offered food daily for a 6-hour period following an 11-day acclimation phase. All cats were weighed on Days −11, −1, 1, 14, 30, 59, 75, and 91. On Days 1 through 91, animals were orally administered capromorelin once daily via syringe at dose levels of 0 or 6 mg/kg. At one hour post-dose, all cats were offered food for a 6-hour period. Variables of interest included weight gain/loss, food consumption, clinical pathology, and serum analysis of IGF-1 and GH.
On Days 1, 30, 59, and 91, blood samples were collected prior to daily dose administration and at 8 hours post-dose and processed to serum for analysis of IGF-1 and GH levels. […] Serum chemistry parameters measured included albumin (ALB), creatine kinase (CK), albumin/globulin ratio (A\G), globulin (GLOB), alkaline phosphatase (ALP), glucose (GLU), fructosamine, alanine aminotransferase (ALT), blood urea nitrogen (BUN), phosphorus (PHOS), calcium (Ca), potassium (K), chloride (Cl), sodium (Na), cholesterol (CHOL), total protein (TP), creatinine (CRE), total bilirubin (TBIL), BUN/creatinine ratio, and sodium/potassium ratio.

[3] = Dose titration laboratory study (10 days): capromorelin serum levels; conditions: cats
Description: as §1

[4] = 2 mg/kg, 90 days, PPP1, not statistically significant vs placebo

CN1N=C2CCN(C(=O)[C@@H](COCc3ccccc3)NC(=O)C(C)(C)N)C[C@@]2(Cc2ccccc2)C1=O.O=C(O)C(O)C(O)C(=O)O [capromorelin, N-[(2R)-1-[(3aR)-2-methyl-3-oxo-3a-(phenylmethyl)-6,7-dihydro-4H-pyrazolo[4,3-c]pyridin-5-yl]-1-oxo-3-(phenylmethoxy)propan-2-yl]-2-amino-2-methylpropanamide L-tartrate]
mean body condition score (scale of 1 to 9) [1, 4]: increased slightly | mean muscle condition score (scale of 0 to 3) [1, 4]: increased | % Success, success defined as greater than 0% gain ([1]; 2 mg/kg, Day 14, PPP2): 86.7% | % Success, success defined as maintenance or gain ([1]; 2 mg/kg, Day 14, PPP2): 86.7% | Body weight successes per group, success defined as greater than 0% gain ([1]; 2 mg/kg, Day 14, PPP2): 13/15 | Bodyweight successes per group, success defined as maintenance or gain ([1]; 2 mg/kg, Day 14, PPP2): 13/15 | % Success, success defined as greater than 0% gain ([1]; 2 mg/kg, Day 30, PPP2): 86.7% | % Success, success defined as maintenance or gain ([1]; 2 mg/kg, Day 30, PPP2): 93.3% | Body weight successes per group, success defined as greater than 0% gain ([1]; 2 mg/kg, Day 30, PPP2): 13/15 | Bodyweight successes per group, success defined as maintenance or gain ([1]; 2 mg/kg, Day 30, PPP2): 14/15 | % Success, success defined as greater than 0% gain ([1]; 2 mg/kg, Day 60, PPP2): 66.7% | % Success, success defined as maintenance or gain ([1]; 2 mg/kg, Day 60, PPP2): 80.0% | Body weight successes per group, success defined as greater than 0% gain ([1]; 2 mg/kg, Day 60, PPP2): 10/15 | Bodyweight successes per group, success defined as maintenance or gain ([1]; 2 mg/kg, Day 60, PPP2): 12/15 | change in mean descriptive quality of life monthly score (±SEM) from Day 0 ([1]; 2 mg/kg, Day 90): 0.00±0.11 | % Success, success defined as greater than 0% gain ([1]; 2 mg/kg, Day 90, PPP2): 73.3% | % Success, success defined as maintenance or gain ([1]; 2 mg/kg, Day 90, PPP2): 80.0% | Body weight successes per group, success defined as greater than 0% gain ([1]; 2 mg/kg, Day 90, PPP2): 11/15 | Bodyweight successes per group, success defined as maintenance or gain ([1]; 2 mg/kg, Day 90, PPP2): 12/15 | mean descriptive owner appetite assessment monthly scores ([1]; 2 mg/kg, compared to placebo, Days 30, 60, 90, PPP1): did not change significantly | mean descriptive quality of life monthly score (±SEM), scale of 1 to 5 ([1]; capromorelin group, Day 0 (baseline)): 3.85±0.19 | tolerability ([1]; cats with CKD, 2 mg/kg once daily, 90 days): well-tolerated | mean bodyweight change (±SEM) ([1]; cats with CKD, Day 14, n = 13, PPP1): 2.93% ± 0.70% | mean bodyweight change (±SEM) ([1]; cats with CKD, Day 30, n = 13, PPP1, L-tartrate, 2 mg/kg): 3.86%±0.85% | mean bodyweight change (±SEM) ([1]; cats with CKD, Day 30, n = 13, PPP1, listed as Capromorelin, L-tartrate, 2 mg/kg): 3.86% ± 0.85% | mean bodyweight change (±SEM) ([1]; cats with CKD, Day 60, n = 13, PPP1, L-tartrate, 2 mg/kg): 4.06%±1.42% | mean bodyweight change (±SEM) ([1]; cats with CKD, Day 60, n = 13, PPP1, listed as Capromorelin, L-tartrate, 2 mg/kg): 4.06% ± 1.42% | mean bodyweight change (±SEM) ([1]; cats with CKD, Day 90, n = 13, PPP1, L-tartrate, 2 mg/kg): 3.59%±1.59% | mean bodyweight change (±SEM) ([1]; cats with CKD, Day 90, n = 13, PPP1, listed as Capromorelin, L-tartrate, 2 mg/kg): 3.59% ± 1.59% | time of initial IGF-1 response (increase) (IGF-1; following treatment, Days 1 and 10): about 4 hours | duration of elevated IGF-1 levels post-dose (IGF-1; once-a-day dosing): 24 h | time to maximum relatively steady IGF-1 level (IGF-1; post-dose, Days 1 and 10): ≤ 8 h | bodyweight ([2]; Group 2, 2 mg/kg/day subcutaneous, Day -7 to Day 13): lost bodyweight | appetite stimulation (food intake, bodyweight) ([2]; cats with compromised kidney function, 2 mg/kg subcutaneous daily 14 days): unable to stimulate appetite | drug accumulation (pharmacokinetic profiles) ([2]; cats with compromised kidney function, IV 0.75 mg/kg once or SC 2 mg/kg daily 14 days): no evidence of drug accumulation | GH following treatment (GH): increased | capromorelin accumulation in serum ([3]; 10 days once daily): no evidence of capromorelin accumulation | capromorelin serum concentrations by 8 hours post-dose ([3]; all AT-002 treated groups): very low levels | absorption ([3]; oral flavored solution): well absorbed | time of maximum serum concentrations ([3]; oral solution 1-4 mg/kg, post-dose): ≤ 30 min
